Measured values as given in patent US4638088A, “Pesticidal biphenylyloxy and biphenylylalkoxy aryl acyl urea compounds” (Union Carbide Corporation, priority 1984, dated 1987).

Experiments:
[1] = test system: southern armyworm; assay: Southern Armyworm Leaf Spray Bait Test; type: in vivo; conditions: Spodoptera eridania, 120 h; for mortality at 8 ppm: read-out: Percent Control (after 5 days), Application Rate 8 ppm; for mortality at 125 ppm: read-out: Percent Control (after 5 days), Application Rate 125 ppm; for mortality at 25 ppm: read-out: Percent Control (after 5 days), Application Rate 25 ppm; for mortality at 100 ppm: read-out: Percent Control (after 5 days), Application Rate 100 ppm; for mortality at 2 ppm: read-out: Percent Control (after 5 days), Application Rate 2 ppm; for mortality at 4 ppm: read-out: Percent Control (after 5 days), Application Rate 4 ppm; for mortality at 500 ppm: read-out: Activity at 500 ppm, SAW, 500 ppm, Southern Armyworm larvae, up to five days
Method: (§1) Suspension of the test compounds were prepared by dissolving one gram of compound in 50 milliliters of acetone in which had been dissolved 0.1 gram (10 percent of the weight of compound) of an alkylphenoxy polyethoxyethanol surfactant, as an emulsifying or dispersing agent. The resulting solution was mixed into 150 milliliters of water to give roughly 200 milliliters of a suspension containing the compound in finely divided form. The thus-prepared stock suspension contained 0.5 percent by weight of compound. The test concentrations in parts per million by weight employed in the tests described hereinbelow were obtained by appropriate dilutions of the stock suspension with water. Certain of the test compounds were also prepared by dissolving 375 mg of compound in 7.5 ml of dimethylformamide. Fifteen milliliters of acetone containing 37.5 mg (10 percent of the weight of test compound) of an alkylphenoxy polyethoxyethanol surfactant, as a wetting/emulsifying/dispersing agent was added to the dimethylformamide solution. Fifty-two and one-half milliliters of water wasa mixed into the dimethylformamide-acetone mixture to give roughly 75 ml of a suspension containing the compound in solution or in finely divided form. The thus prepared stock suspension contained 0.5 percent by weight of compound. The test procedures were as follows:
Larvae of the southern armyworm (Spodoptera eridania, (Cram.), reared on Tendergreen bean plants at a temperature of 80°±5° F. and a relative humidity of 50±5 percent, constituted the test insects.
Potted Tendergreen bean plants of standarad height and age were placed on a revolving turntable and sprayed with 100-110 milliliters of test compound formulation by use of a DeVilbiss spray gun set at 40 psig air pressure. This application, which lasted 25 seconds, was sufficient to wet plants to run-off. As a control, 100-110 milliliters of a water-acetone-emulsifier solution containing no test compound was also sprayed on infested plants. When dry, the paired leaves were separated and each one was placed in a 9 centimeter Petri dish lined with moistened filter paper. Five randomly selected larvae were introduced into each dish and the dishes were closed. The closed dishes were labeled and held at 80°-85° F. for up to five days. Although the larvae could easily consume the whole leaf within twenty-four hours, no more food was added. Larvae which were unable to move the length of the body, even upon stimulation by prodding, were considered dead. Percent mortality was recorded for various concentration levels.

[2] = test system: Mexican bean beetle; assay: Mexican Bean Beetle Leaf Spray Test; type: in vivo, Epilachna varivestic; conditions: Mexican Bean Beetle larvae, five days; for mortality at 500 ppm: Epilachna varivestis, 120 h, read-out: Activity at 500 ppm, MBB; for Activity at 500 ppm, MBB: 7200 min
Method: as §1
Fourth instar larvae of the Mexican bean beetle (Epilachna varivestic, Muls.), reared on Tendergreen bean plants at a temperature of 80°±5° F. and 50±5 percent relative humidity, were the test insects. For certain of the tests second instar larvae (weighting about 6 mg) of the Mexican bean beetle (Epilachna varaivestis, Muls.), reared on Sieva Pole lime bean plants at a temperature of 80°±5° F. and 50±5 percent relative humidity, were the test insects.
The test compounds were formulated by diluting the stock suspension with water to give a suspension containing 500 parts of test compound per million parts of final formulation. Potted Tendergreen bean plants of standard height and age were placed on a revolving turntable and sprayed with 100-110 milliliters of test compound formulation by use of a DeVilbiss spray gun set at 40 psig air pressure. This application, which lasted 25 seconds, was sufficient to wet plants to run-off. As a control, 100-110 milliliters of a water-acetone-emulsifier solution containing no test compound was also sprayed on infested plants. When dry, the paired leaves were separated and each was placed in a 9 centimeter Petri dish lined with moistened filter paper. Five randomly selected larvae were introduced into each dish, and the dishes were closed. The closed dishes were labeled and held at a temperature of 80°±5° F., for five days. Although the larvae could easily consume the leaf within 24 to 48 hours, no more food was added. Larvae which were unable to move the length of the body, even upon stimulation, were considered dead. Percent mortality was recorded for various concentration levels.

| SMILES | mortality at 500 ppm [1] [%] | mortality at 500 ppm [2] [%] | further results |
| --- | --- | --- | --- |
| Cc1ccc(Oc2ccc(NC(=O)NC(=O)c3ccccc3Cl)cc2Cl)c(C)c1 [Comparative Example B, reference compound] |  |  | mortality at 8 ppm [1]: 20%; mortality at 21 ppm ([1]; read-out: Percent Control (after 5 days), Application Rate 21 ppm): 30%; mortality at 125 ppm [1]: 100% |
| O=C(NC(=O)c1c(F)cccc1F)Nc1cc(Cl)c(Oc2cccc3ccccc23)c(Cl)c1 [Comparative Example C, reference compound] |  |  | mortality at 8 ppm [1]: 0%; mortality at 31 ppm ([1]; read-out: Percent Control (after 5 days), Application Rate 31 ppm): 40%; mortality at 125 ppm [1]: 100% |
| O=C(NC(=O)c1ccc(F)cc1Cl)Nc1cc(Cl)c(Oc2ccc(-c3ccccc3)cc2)c(Cl)c1 [Comparative Example F, reference compound] |  |  | mortality at 6.5 ppm ([1]; read-out: Percent Control (after 5 days), Application Rate 6.5 ppm): 0%; mortality at 25 ppm [1]: 0%; mortality at 100 ppm [1]: 0% |
| O=C(NC(=O)c1cc(F)ccc1Cl)Nc1cc(Cl)c(Oc2cccc(-c3ccccc3)c2)c(Cl)c1 [Comparative Example G, reference compound] |  |  | mortality at 6.25 ppm ([1]; read-out: Percent Control (after 5 days), Application Rate 6.25 ppm): 0%; mortality at 25 ppm [1]: 0%; mortality at 100 ppm [1]: 0% |
| Cc1cc(NC(=O)NC(=O)c2ccccc2Cl)c(C)c(Cl)c1Oc1ccc(S(=O)(=O)c2ccc(Cl)cc2)cc1 [Comparative Example H, reference compound] |  |  | mortality at 2 ppm [1]: 0%; mortality at 4 ppm [1]: 0%; mortality at 8 ppm [1]: 10% |
| O=C(NC(=O)c1c(F)cccc1F)Nc1ccc(Oc2ccc(Oc3ccccc3)cc2)cc1 [D, reference compound] |  |  | mortality at 25 ppm [1]: 0%; mortality at 100 ppm [1]: 0% |
| O=C(NC(=O)c1ccccc1Cl)Nc1ccc(Oc2ccc(Oc3ccccc3)cc2)cc1 [E, reference compound] |  |  | mortality at 25 ppm [1]: 0%; mortality at 100 ppm [1]: 0% |
| Cc1cc(NC(=O)NC(=O)c2ccccc2Cl)c(C)c(Cl)c1Oc1ccc(-c2ccccc2)cc1Cl [Example 1, 1-(2-chlorobenzoyl)-3-[2,5-dimethyl-3-chloro-4-(2-chloro-4-phenylphenoxy)phenyl]urea] | 71 to 100 | 71 to 100 |  |
| O=C(NC(=O)c1ccccc1Cl)Nc1cc(Cl)c(OCc2ccccc2-c2ccccc2)c(Cl)c1 [Example 2, 1-(2-chlorobenzoyl)-3-[3,5-dichloro-4-(2-phenylphenylmethoxy)phenyl]urea] | 71 to 100 | 71 to 100 |  |
| Cc1cc(NC(=O)NC(=O)c2ccccc2Cl)c(C)c(Cl)c1Oc1ccccc1-c1ccccc1 [Example 3] | 71 to 100 | 71 to 100 |  |
| Cc1cc(NC(=O)NC(=O)c2c(Cl)cccc2Cl)c(C)c(Cl)c1Oc1ccccc1-c1ccccc1 [Example 4] | 71 to 100 | 71 to 100 |  |
| Cc1cc(NC(=O)NC(=O)c2c(F)cccc2Cl)c(C)c(Cl)c1Oc1ccccc1-c1ccccc1 [Example 5] | 71 to 100 | 71 to 100 |  |
| Cc1cc(NC(=O)NC(=O)c2c(F)cccc2F)c(C)c(Cl)c1Oc1ccccc1-c1ccccc1 [Example 6] | 71 to 100 | 71 to 100 |  |
| Cc1cc(NC(=S)NC(=O)c2ccccc2Cl)c(C)c(Cl)c1Oc1ccccc1-c1ccccc1 [Example 7] | 71 to 100 | 71 to 100 |  |
| Cc1cc(NC(=S)NC(=O)c2ccccc2F)c(C)c(Cl)c1Oc1ccccc1-c1ccccc1 [Example 8] |  |  | Activity at 500 ppm, MBB [2]: A (71- 100% Kill) |
| Cc1ccccc1C(=O)NC(=S)Nc1cc(C)c(Oc2ccccc2-c2ccccc2)c(Cl)c1C [Example 9] | 71 to 100 | 71 to 100 |  |
| Cc1cc(NC(=O)NC(=O)c2ccccc2Cl)c(C)c(Cl)c1Oc1ccc(-c2ccccc2)cc1 [Example 10] | 0 to 30 | 71 to 100 |  |
| Cc1cc(NC(=O)NC(=O)c2c(F)cccc2F)c(C)c(Cl)c1Oc1ccc(-c2ccccc2)cc1 [Example 11] | 71 to 100 | 71 to 100 |  |
| Cc1cc(NC(=S)NC(=O)c2ccccc2Cl)c(C)c(Cl)c1Oc1ccc(-c2ccccc2)cc1 [Example 12] | 0 to 30 | 71 to 100 |  |

| SMILES | mortality at 500 ppm [1] [%] | mortality at 500 ppm [2] [%] | further results |
| --- | --- | --- | --- |
| Cc1cc(NC(=S)NC(=O)c2ccccc2Cl)c(C)c(Cl)c1Oc1ccc(Br)cc1-c1ccccc1 [Example 13] | 0 to 30 | 0 to 30 |  |
| Cc1cc(NC(=O)NC(=O)c2c(F)cccc2F)c(C)c(Cl)c1Oc1ccc(-c2ccccc2)cc1Cl [Example 14] | 71 to 100 | 71 to 100 |  |
| Cc1cc(NC(=O)NC(=O)c2ccccc2F)c(C)c(Cl)c1Oc1ccc(-c2ccccc2)cc1Cl [Example 15] | 71 to 100 | 71 to 100 |  |
| Cc1cc(NC(=O)NC(=O)c2c(F)cccc2Cl)c(C)c(Cl)c1Oc1ccc(-c2ccccc2)cc1Cl [Example 16] | 71 to 100 | 71 to 100 |  |
| Cc1cc(NC(=O)NC(=O)c2ccccc2Cl)c(C)c(Cl)c1Oc1ccc(Cl)cc1-c1ccccc1 [Example 17] | 71 to 100 | 71 to 100 |  |
| Cc1cc(NC(=O)NC(=O)c2ccccc2F)c(C)c(Cl)c1Oc1ccc(Cl)cc1-c1ccccc1 [Example 18] | 71 to 100 | 71 to 100 |  |
| Cc1cc(NC(=O)NC(=O)c2c(F)cccc2Cl)c(C)c(Cl)c1Oc1ccc(Cl)cc1-c1ccccc1 [Example 19] | 71 to 100 | 71 to 100 |  |
| Cc1cc(NC(=O)NC(=O)c2c(F)cccc2F)c(C)c(Cl)c1Oc1ccc(Cl)cc1-c1ccccc1 [Example 20] | 71 to 100 | 71 to 100 |  |
| Cc1cc(Oc2ccccc2-c2ccccc2)c(Cl)cc1NC(=O)NC(=O)c1ccccc1Cl [Example 21] | 71 to 100 | 71 to 100 |  |
| Cc1cc(Oc2ccccc2-c2ccccc2)c(Cl)cc1NC(=O)NC(=O)c1c(F)cccc1F [Example 22] | 71 to 100 | 71 to 100 |  |
| Cc1cc(Oc2ccccc2-c2ccccc2)c(Cl)cc1NC(=S)NC(=O)c1ccccc1Cl [Example 23] | 71 to 100 | 71 to 100 |  |
| Cc1cc(NC(=O)NC(=O)c2ccccc2Cl)c(C)c(Cl)c1Oc1ccc(Br)cc1-c1ccccc1 [Example 24] | 71 to 100 | 0 to 30 |  |
| Cc1cc(NC(=O)NC(=O)c2c(F)cccc2F)c(C)c(Cl)c1Oc1ccc(Br)cc1-c1ccccc1 [Example 25] | 71 to 100 | 71 to 100 |  |
| Cc1cc(NC(=O)NC(=O)c2c(F)cccc2Cl)c(C)c(Cl)c1Oc1ccc(Br)cc1-c1ccccc1 [Example 26] | 71 to 100 | 71 to 100 |  |
| Cc1cc(NC(=S)NC(=O)c2ccccc2F)c(C)c(Cl)c1Oc1ccccc1-c1ccccc1 [Example 30] |  |  | Activity at 500 ppm, MBB [2]: C (0- 30% Kill) |
| Cc1cc(NC(=O)NC(=O)c2c(F)cccc2F)c(C)c(Cl)c1Oc1ccccc1-c1ccccc1 [Example 33] |  |  | mortality at 2 ppm [1]: 100%; mortality at 8 ppm [1]: 100% |
| Cc1cc(NC(=S)NC(=O)c2ccccc2F)c(C)c(Cl)c1Oc1ccccc1-c1ccccc1 [Example 34] |  |  | mortality at 2 ppm [1]: 100%; mortality at 8 ppm [1]: 100% |
| O=C(NC(=O)c1c(F)cccc1F)Nc1cc(Cl)c(OCc2ccccc2-c2ccccc2)c(Cl)c1 [Example 35] |  |  | mortality at 1 ppm ([1]; read-out: Percent Control (after 5 days), Application Rate 1 ppm): 100%; mortality at 4 ppm [1]: 100% |
